Reference: the supplement of paper PMC8183993
Counter-ions that a name gives are not always drawn.

Experiments:
Settings in all cases: 24 h
U2OS [1] = experiment: mean HPG incorporation (global translation) relative to DMSO (% of DMSO); higher = more protein synthesis
Method: (§1)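 Validation screen in U2OS cells: hits tested at 1, 3 and 10 uM for 24 h in duplicate plates. Translation was read by OPP incorporation (1 h pulse) and HPG incorporation (30 min in methionine-free medium), quantified by high-throughput microscopy alongside nuclei counts. All values are normalised to DMSO (= 100).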

U2OS [2] = experiment: nuclei count in OPP assay relative to DMSO (% of DMSO); higher = more viable cells
Method: as §1

U2OS [3] = experiment: nuclei count in HPG assay relative to DMSO (% of DMSO); higher = more viable cells
Method: as §1

U2OS [4] = experiment: mean OPP incorporation (global translation) relative to DMSO (% of DMSO); higher = more protein synthesis
Method: as §1

SMILES | mean HPG incorporation (U2OS [1]; 1 µM) | mean HPG incorporation (U2OS [1]; 3 µM) | mean HPG incorporation (U2OS [1]; 10 µM) | nuclei count in OPP assay (U2OS [2]; 1 µM) | nuclei count in OPP assay (U2OS [2]; 3 µM) | nuclei count in OPP assay (U2OS [2]; 10 µM) | nuclei count in HPG assay (U2OS [3]; 1 µM) | nuclei count in HPG assay (U2OS [3]; 3 µM) | nuclei count in HPG assay (U2OS [3]; 10 µM) | mean OPP incorporation (U2OS [4]; 1 µM) | mean OPP incorporation (U2OS [4]; 3 µM) | mean OPP incorporation (U2OS [4]; 10 µM)
COc1cc(NC(=O)c2ccccn2)ccc1Cl | 106 | 113 | 116 | 105 | 91 | 88.2 | 103 | 95 | 96.2 | 83.8 | 79.6 | 70.9
COc1cc2c(cc1C(F)(F)F)N(C(=O)Nc1cc(F)cc(-c3cccnc3)c1)CC2 | 95.1 | 98.3 | 74.3 | 96.9 | 93.9 | 88.4 | 95.9 | 95 | 89 | 102 | 112 | 117
COc1cc(C)c(/C=C/C(C)=C/C=C/C(C)=C/C(=O)O)c(C)c1C [Acitretin] | 99.8 | 108 | 87 | 91.4 | 89.8 | 94.2 | 91.8 | 95.3 | 95.7 | 107 | 109 | 109
Cn1cc(-c2ccc3ncc(Cc4ccc5ncccc5c4)n3n2)cn1 [NVP-BVU972] | 114 | 132 | 138 | 104 | 79.7 | 89.8 | 107 | 85.5 | 88.5 | 91 | 107 | 124
COc1cc(COc2cc(N)c(Cl)cc2C(=O)CCC2CCN(CCNS(C)(=O)=O)CC2)cc(OC)c1 | 82.2 | 83.4 | 58.1 | 95.1 | 97.5 | 79.8 | 100 | 106 | 90.1 | 121 | 122 | 120
Cc1c(C)c2c(c(C)c1O)CC[C@](C)(CN1CCN(c3cc(N4CCCC4)nc(N4CCCC4)n3)CC1)O2 | 90.2 | 93.4 | 87.1 | 95.4 | 101 | 102 | 94.9 | 102 | 98 | 98.2 | 97.2 | 111
Cc1ccc(NC(=O)c2ccc(CN3CCN(C)CC3)cc2)cc1Nc1nccc(-c2cccnc2)n1 [Imatinib (STI571)] | 91.5 | 111 | 121 | 97.6 | 97.7 | 95.9 | 102 | 97.7 | 92.4 | 113 | 122 | 131
CC1=C(/C=C/C(C)=C/C=C/C(C)=C/C(=O)Nc2ccc(O)cc2)C(C)(C)CCC1 [Fenretinide] | 98.1 | 93.5 | 96.7 | 97.1 | 96.5 | 87.9 | 102 | 93.9 | 86.7 | 107 | 109 | 117
CCCc1cc(C)[nH]c(=O)c1CNC(=O)c1cc(-c2ccc(N3CCN(C(C)C)CC3)nc2)cc2c1cnn2C(C)C [UNC1999] | 111 | 119 | 77.1 | 89.3 | 93.6 | 73.9 | 93.7 | 94.7 | 80.6 | 108 | 119 | 122
O=[N+]([O-])c1ccccc1S(=O)(=O)NCC1CCC(CNCC2CCc3ccccc3C2)CC1 (stereo not drawn) [NTNCB hydrochloride] | 98 | 104 | 56.8 | 101 | 98.3 | 74.4 | 95.8 | 90.7 | 87.6 | 106 | 115 | 110
Cc1c(CN2CCN(C(=O)[C@H](C)O)CC2)sc2c(N3CCOCC3)nc(-c3cnc(N)nc3)nc12 [Apitolisib (GDC-0980, RG7422)] | 44.1 | 40.7 | 41.4 | 72.8 | 76.9 | 73.3 | 80.7 | 76.3 | 75 | 60.3 | 35.8 | 35.4
Oc1ccc(Nc2nc(-c3ccc(Cl)cc3)cs2)cc1 [SKI II] | 92.6 | 79.3 | 55.7 | 88.5 | 85.3 | 75.2 | 99 | 88.9 | 72.6 | 91 | 83.5 | 69.5
COc1ccccc1S(=O)(=O)Nc1ccc2c(c1)CN(C)C(=O)N2 [PFI-1] | 95.7 | 93.2 | 87 | 99.5 | 106 | 106 | 103 | 101 | 101 | 83.4 | 56.2 | 45.9
Nc1ccc(-c2cccc3c(=O)cc(N4CCOCC4)oc23)cc1 [PI 828] | 73.5 | 64.3 | 41.5 | 101 | 89.8 | 81.9 | 108 | 94.6 | 85.2 | 92.1 | 83.1 | 54.1
